In patent US8778961B2, “O-methylated rapamycin derivatives for alleviation and inhibition of lymphoproliferative disorders” (The Trustees of the University of Pennsylvania, priority 2000, dated 2014):
Several values for one entry are separate records, joined by “and”; a condition that tells them apart may be missing. Equal values may be shown once.

Columns and labels:
Experiment in all cases: treatment of established xenotransplanted tumors in SCID mice
Assay type in all cases: in vivo
20A tumors = system: 20A tumors
Method: (§1) Establishment and passaging of the xenotransplanted tumors was performed as described (Douglas et al., 1998, Cytometry 32:57-65; Kawamata et al., 1998, Blood 91:561-569; Pepper et al., 1998, Leuk. Res. 22:439-444). To deplete macrophages and NK cells and to enhance tumor engraftment, SCID mice were injected intraperitoneally with 30-45 milligrams per kilogram of etoposide (Bedford Laboratories, Bedford, Ohio) 4 days prior to implantation of the human EBV^+ B-cell lines (Visonneau et al., 1998, Am. J. Path. 152:1299-1311). Ten million cells of each line employed (see results) were inoculated into mice either intraperitoneally or subcutaneously in 200 microliters of Dulbecco's Phosphate Buffered Saline (DPBS; BioWhittaker, Walkersville, Md.). Ascites or palpable subcutaneous tumors developed 3-5 weeks after cell injection.
(§2) Tumor treatment and growth inhibition experiments were performed using fragments of the established subcutaneous tumors (Pasqualucci et al., 1995, Blood 85:2139-2146, Visonneau et al., 1998, Am. J. Path. 152:1299-1311). For this purpose, mice were anesthetized with KETALAR™ (ketamine, Parke-Davis, Morris Plains, N.J.) by intraperitoneal injection of 100 milligrams per kilogram. Next, the primary tumor was aseptically removed and freed from necrotic, fatty and connective tissue and divided into small pieces of roughly equal size and 3-4 pieces per mouse were injected subcutaneously. Treatment of established tumors with SDZ RAD was started when tumors reached 5 millimeters diameter. In growth inhibition experiments, the treatment was initiated 3 days prior to the tumor implantation. Tumor volume in all experiments was determined from the equation: volume=0.4ab^2, where a and b designate respectively long and short diameter of the tumor. The transplanted mice were monitored for tumor growth for a period of up to 2 months. Five milligrams per kilogram of SDZ RAD was administered once a day by gavage as described (Schuurman et al., 1997, Transplantation 64:32-5; Schuler et al. 1997, Transplantation 64:36-42).
(§3) Mice were sacrificed by exposure to FORANE™ (isoflurane, Ohmeda, Liberty Place, N.J.) on day 29 in the drug toxicity study, on day 40-55 in the tumor growth inhibition study or when tumors achieved approximately 2 centimeter diameter, or when ulceration of the skin, signs of severe respiratory distress, weakness, or lethargy appeared. Complete autopsy was performed on all mice at the end of the study regardless of their appearance. Tumor and internal organs (spleen, liver, lung, heart, kidney, small and large intestines, femoral bone for bone marrow) were fixed in 10% (v/v) formalin, embedded in paraffin, cut into […] sections, transferred to glass slides, and stained with hematoxylin and eosin. Representative tumor fragments were stained immunohistochemically by standard streptavidin-biotin complex technique using commercially available reagents (Research Genetics, Huntsville, Ala.), antibodies: anti-CD20 (L-26) and LMP-1 (both from DAKO, Carpinteria, Calif.) and Ki67 (mib1; Immunotech, Westbrook, Me.). EBV-encoded RNA (EBER-1), and detected using commercially available reagents.
(§4) In order to determine the in vivo effect of SDZ RAD on PTLD-like cells, 15A, 20A, and A1 cell line tumors were implanted into 7-15 SCID mice per cell line. Treatment was initiated once the tumors reached 5 millimeters diameter, which corresponds to a volume of 50 cubic millimeters. SDZ RAD was administered by daily gavage at 5 milligrams per kilogram, which represents a non-toxic and effective immunosuppressive dose (Schuurman et al., 1997, Transplantation 64:32-5; Schuler et al. 1997, Transplantation 64:36-42).

A1 cell line tumors = system: A1 cell line tumors
Method: as §1, §2, §3, §4

15A tumors = conditions: 5 milligrams per kilogram daily gavage
Method: as §1, §2, §3, §4

Compound: CO[C@H]1C[C@@H]2CC[C@@H](C)[C@@](O)(O2)C(=O)C(=O)N2CCCC[C@H]2C(=O)O[C@H]([C@H](C)C[C@@H]2CC[C@@H](OCCO)[C@H](OC)C2)CC(=O)[C@H](C)/C=C(\C)[C@@H](O)[C@@H](OC)C(=O)[C@H](C)C[C@H](C)/C=C/C=C/C=C/1C [SDZ RAD, 40-O-(2-hydroxy)ethyl-rapamycin]
- treated mice with significant regression in the tumor volume (20A tumors; 5 milligrams per kilogram daily gavage): 6 out of 10
- average treated tumor volume (20A tumors; day 19, 5 milligrams per kilogram daily gavage, equal to initial tumor size): 50 cubic millimeters
- median tumor volume (20A tumors; day 53, subset of mice with regression): < 5 cubic millimeters
- mice with steady regression on further treatment (A1 cell line tumors; after day 21): all 8
- tumors showing any evidence of growth (A1 cell line tumors; day 21): 0/8
- median volume of the treated tumors (A1 cell line tumors; day 21, 5 milligrams per kilogram daily gavage): 50 cubic millimeters
- mean tumor volume (A1 cell line tumors; day 53): < 5 cubic millimeters
- mice in which no lymphoma could be detected (total tumor eradication) (A1 cell line tumors; day 53, 8 treated mice): 4 and 4 out of 8
- mice with microscopically-confirmed residual lymphoma (A1 cell line tumors; day 53, 8 treated mice): 4
- effect on tumor growth (15A tumors; started at 5 millimeters tumor diameter): marked drug-induced delay of the tumor growth but no absolute tumor growth inhibition or regression
- median tumor volume (15A tumors; day 21, treated mice): approximately 240 cubic millimeters
- tumor volume (15A tumors; day 38, treated mice): around 1000 cubic millimeters
